These results are taken from ChEMBL document CHEMBL1152005, “Design, synthesis and X-ray crystallographic studies of novel FKBP-12 ligands” (Bioorg Med Chem Lett, 1995).

Molecules are shown by their SMILES.

The nature of one assay: Compound was evaluated for its ability to inhibit the rotamase activity of FKBP-12. To be noted: read-out: Ki app.
Regarding `Cc1cccc(C)c1OC12CCCC(CC(=O)C1)C2` (stereo not given), the Ki is 461 µM.
Turning to `O=C1CC2CCCC(OCc3ccccc3)(C1)C2` (stereo not given), the Ki was 85.8 µM.
As to `COc1cccc(OC23CCCC(CC(=O)C2)C3)c1` (stereo not given), the Ki is 92.1 µM.
On the same count and under the same terms, as for `Cc1ccccc1OC12CCCC(CC(=O)C1)C2` (stereo not given), the figure is 120 µM; as for `O=C1CC2CCCC(Sc3ccccc3)(C1)C2` (stereo not given), 9.2 µM; as for `O=C1CC2CCCC(S(=O)(=O)c3ccccc3)(C1)C2` (stereo not given), 48.5 µM.
The same measure, in the same setting: the result for `CN(c1ccccc1)C12CCCC(CC(=O)C1)C2` (stereo not given) reads 165 µM.
Consider `O=C1CC2CCCC(Oc3cccc(O)c3)(C1)C2` (stereo not given), for which the Ki is 16.7 µM.
As to `O=C1CC2CCCC(Oc3ccccc3)(C1)C2` (stereo not given), the Ki stood at 116 µM.

Another assay in a line: Compound was evaluated for its ability to inhibit the rotamase activity of FKBP-12; no inhibition.
Conditions: not given; call rule not given here
Turning to `O=C1CC2CCCC(O)(C1)C2` (stereo not given), the Ki app result was “Not Active”.
